What was measured:
[1] = test system: Thoracic aortic segment (smooth muscle cells); experiment: Relaxation of phenylephrine pre-contracted, endothelium-removed thoracic aortic rings; parameters: species or system guinea pig; details: 10 μM added 2 times, pre-contracted with 10 μM phenylephrine, 5 minutes after additions
Excerpt: Thoracic aortic segments were isolated from a guinea pig as already indicated by Vandier et al, (Adv Physiol Educ. 2002 December; 26(1-4):195-203). Briefly, thoracic aortic segments were isolated, cleaned of adventitia, and cut into rings. The endothelium was removed and aortic rings, were mounted on stainless steel hooks and suspended in a 30-ml jacketed tissue bath with physiological salt solution (in mm): 120 NaCl, 5.4 KCl, 1 MgCl2, 0.6 NaH2PO4, 25 NaHCO3, 5.6 glucose, 5 Na-pyruvate, and 2 CaCl2, bubbled with 95% 02-5% CO2 maintained at 37° C. and aerated with 95% 02-5% CO2. Solutions to be tested were directly added in the jacketed tissue bath generated allowed one to get the desired concentration around the aortic rings. Isometric force generation was recorded with Grass transducers (FT03; Quincy, MA) connected to an amplifier (gain 500) and analogic to digital converter (1 Hz) connected to a computer.
Thoracic aortic segment was pre-contracted using 10 μM phenylephrine. After the steady state was reached 10 μM of compound 002 was added, two successive times, directly in the bath solution containing a physiological salt solution, maintained at 37° C. and aerated with 95% 02-5% CO2

SK3 channels = biological target: T1, SK3 channels (Homo sapiens, UniProt Q9UGI6); experiment: Whole-cell patch-clamp of SK3 currents in HEK293T cells expressing SK3 channels; type: cell-based; details: 10 μM; for time after addition at which the effect on SK3 current was reached / time after application at which the maximum of the activation of SK3 current was reached: currents at 0 mV
T1 construct: expressed in transfected cells
Protocol: HEK293T were obtained from American Type Culture Collection (ATCC) and cultured in Dulbecco's Modified Eagle's Medium, supplemented with 10% (v:v) fetal bovine serum (Lonza, France), 1 mM pyruvate sodium (Sigma-Aldrich, France), and 1% non-essential amino acid (Sigma-Aldrich, France). Cells were grown in a humidified atmosphere at 37° C. and with 95% air and 5% CO2. HEK293T cells were transduced as previously described to obtain stable expression of homotetramer SK3 channels.
Experiments were performed in the whole-cell configuration of the patch-clamp technique. The patch pipettes were filled with solution contained 145 mM KCl, 1 mM MgCl2, 1 mM Mg-ATP, 0.7 mM CaCl2), 1 mM EGTA and 10 mM HEPES (PCa 6). pH was adjusted to 7.2 with KOH. The bath solution contained 140 mM NaCl, 4 mM KCl, 2 mM CaCl2), 1 mM MgCl2, 10 mM HEPES, 0.33 mM NaH2PO4, and 11.5 mM D-glucose. pH was adjusted to 7.4 with NaOH. Patch-clamp experiments and data analyses were conducted as previously described (Girault, A. et al. Current Cancer Drug Target, 2011, 11, 1111-1125). […] The amplitude of the apamin-sensitive current was obtained by subtraction of the amplitude of the current before and after application of 100 nmol/L apamin (a specific SKCa blocker).
The capacity of the compounds 001-006 (Table 2, FIGS. 1 and 2) to modulate the activity of SK3 currents was measured using the whole cell configuration of the patch-clamp technique. For these acute tests, a concentration of 10 μM for each of the compounds was used.

Substance	relaxation effect on pre-contracted thoracic aortic segment [1]	effect on SK3 channel in words (SK3 channels)	time after addition at which the effect on SK3 current was reached (SK3 channels) [s]	time after application at which the maximum of the activation of SK3 current was reached (SK3 channels) [min]	SK3 current (change after application of compound) (SK3 channels; acute, HEK293T expressing SK3, currents analyzed at 0 mV, pCa 6, mean ± SEM)
Lac(OH)7-O-2-methoxy-3-S-heneicosane [compound 002]	dose-dependent relaxation	strong activator of SK3 channel	30	5	–
Lac(OH)7-O-2-methoxy-4-S-heneicosane [compound 003]	–	kept its activation capacity	–	5	–
Lac(OH)7-O-2-methoxy-3-S-hexadecane [compound 001]	–	abolished the activating effect	–	–	−9.7% ± 5.2
Lac(OH)7-O-2-ethoxy-4-S-heneicosane [compound 006]	–	–	30	–	–

From patent US12729218B2, “Glycolipids and use thereof as SK3 ion channel modulators” (priority 2020, dated 2026)
